Read-outs that look alike come from different tables or passages of the source.
Key:
[1] = molecular target: BACE 1 (Beta Secretase enzyme) (Homo sapiens, UniProt P56817); experiment: In vitro enzymatic BACE FRET assay; assay type: biochemical
Description: In Vitro Enzymatic BACE FRET (Fluorescence Resonance Energy Transfer) Assay (Enzyme Assay Data in Table 1)
The assay buffer used in this screen is 0.05 M acetate, pH 4.2, 10% DMSO final, 100 uM genapol (which is a nonionic detergent, below its Critical Micelle Concentration). […] The assay is effectively started by the addition of FRET substrate (50 nM) and the combination is incubated for one hour. The FRET assay is terminated with by addition of Tris buffer, which raises the pH to neutrality, and the fluorescence is determined. The FRET substrate is a peptide with commercially available fluorophore and quencher, on opposite sides of the BACE cleavage site.

[2] = system: Aβ40 in conditioned medium of cells stably expressing Amyloid Precursor Protein (APP); experiment: In vitro BACE cell-based assay (HEK cell assay), Aβ40 sandwich ELISA; settings: IC50 range symbols, Table 1, Aβ40, 24 h incubation, read-out: HEK cell assay
Description: In Vitro BACE Cell-Based Assay:
The cell-based assay measures inhibition or reduction of Aβ40 in conditioned medium of test compound treated cells expressing amyloid precursor protein.
Cells stably expressing Amyloid Precursor Protein (APP) were plated at a density of 40K cells/well in 96 well plates (Costar). The cells were cultivated for 24 hours at 37° C. and 5% CO2 in DMEM supplemented with 10% FBS. The test compounds were then added to cells in 10-point dose response concentrations with the starting concentration being either 100 μM or 10 μM. The compounds were diluted from stock solutions in DMSO and the final DMSO concentration of the test compounds on cells was 0.1%. After 24 h of incubation with the test compounds the supernatant conditioned media was collected and the Aβ 40 levels were determined using a sandwich ELISA. The IC50 of the compound was calculated from the percent of control or percent inhibition of Aβ 40 as a function of the concentration of the test compound.
The sandwich ELISA to detect Aβ 40 was performed in 96 well microtiter plates, which were pre-treated with goat anti-rabbit IgG (Pierce). The capture and detecting antibody pair that were used to detect Aβ 40 from cell supernatants were affinity purified pAb40 (Biosource) and biotinylated 6E10 (Signet Labs Inc.), respectively. The optimal concentration for the pAb40 antibody was 3 μg/ml in Superblock/TBS (Pierce) that was supplemented with 0.05% Tween 20 (Sigma).
Cellular supernatants were incubated with the capture antibody for 3 h at 4° C., followed by 3 wash steps in TBS-tween (0.05%). The detecting antibody incubation was for 2 h at 4° C., again followed by the wash steps as described previously. The final readout of the ELISA is Time-Resolved Fluorescence (counts per minute) using Delfia reagents Streptavidin-Europium and Enhancement solutions (Perkin Elmer) and the Victor 2 multilabel counter (Perkin Elmer).

[3] = IC50 range symbols, Table 1, read-out: BACE 1 FRET assay

BACE 1 (Beta Secretase enzyme), sequence (P56817 46-501, species assumed): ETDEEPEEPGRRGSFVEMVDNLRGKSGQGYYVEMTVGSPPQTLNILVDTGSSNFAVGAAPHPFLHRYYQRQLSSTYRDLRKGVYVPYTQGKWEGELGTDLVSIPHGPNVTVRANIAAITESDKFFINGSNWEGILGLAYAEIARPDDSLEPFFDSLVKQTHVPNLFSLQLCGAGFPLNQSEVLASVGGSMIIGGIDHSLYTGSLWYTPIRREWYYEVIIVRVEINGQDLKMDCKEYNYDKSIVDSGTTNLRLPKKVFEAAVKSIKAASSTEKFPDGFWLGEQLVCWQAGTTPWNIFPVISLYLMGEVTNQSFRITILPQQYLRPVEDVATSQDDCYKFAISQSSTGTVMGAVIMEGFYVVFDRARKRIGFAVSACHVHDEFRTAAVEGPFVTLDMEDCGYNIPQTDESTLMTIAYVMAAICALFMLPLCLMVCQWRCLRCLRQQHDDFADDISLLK

| Compound | IC50 [1, 3] [nM] | IC50 ([2]; Homo sapiens, HEK293, 24 h) [nM] | IC50 [2] [nM] | IC50 ([1]; bound stated, read-out: IC50 value in the FRET BACE enzyme assay) [nM] |
| --- | --- | --- | --- | --- |
| COCC1CC1c1ccc2nc(N)c(CC(C)C(=O)NCCC(C)(C)C)cc2c1 (stereo not shown) [Example 119, 3-(2-amino-6-(2-(methoxymethyl)cyclopropyl)quinolin-3-yl)-N-(3,3-dimethylbutyl)-2-methylpropanamide] | > 5000 | > 5000 | – | – |
| COc1ccccc1[C@@H](C)NC(=O)C(C)Cc1cc2cc(-c3ccccc3C)ccc2nc1N (stereo partly drawn) [Example 76, 3-(2-amino-6-o-tolylquinolin-3-yl)-N-((R)-1-(2-methoxyphenyl)ethyl)-2-methylpropanamide] | < 500 | 1000 to 5000 | – | – |
| COc1ccccc1[C@@H](C)NC(=O)[C@H](C)Cc1cc2cc(-c3ccccc3C)ccc2nc1N [Example 74, (R)-3-(2-amino-6-o-tolylquinolin-3-yl)-N-((R)-1-(2-methoxyphenyl)ethyl)-2-methylpropanamide] | 1000 to 5000 | > 5000 | – | – |
| 3-(3-amino-7-o-tolylnaphthalen-2-yl)-N-((S)-1-cyclohexylethyl)propanamide [Example 35] | < 500 | – | > 5000 | – |
| Cc1cccnc1-c1ccc2nc(N)c(CC(C)C(=O)NC[C@@H]3CCCOC3)cc2c1 (stereo partly drawn) [Example 89, 3-(2-amino-6-(3-methylpyridin-2-yl)quinolin-3-yl)-2-methyl-N-(((S)-tetrahydro-2H-pyran-3-yl)methyl)propanamide] | < 500 | 500 to 1000 | – | – |
| Cc1ccncc1-c1ccc2nc(N)c(CCC(=O)NCC3CCCCC3)cc2c1 [Example 46, 3-(2-amino-6-(4-methylpyridin-3-yl)quinolin-3-yl)-N-(cyclohexylmethyl)propanamide] | 1000 to 5000 | > 5000 | – | – |
| 3-(3-amino-7-o-tolylnaphthalen-2-yl)-N-(2-methoxybutyl)propanamide [Example 26] | < 500 | – | 1000 to 5000 | – |
| Cc1ccccc1-c1ccc2nc(N)c(CCC(=O)N3CCC(F)(F)C3)cc2c1 [Example 134, 3-(2-amino-6-o-tolylquinolin-3-yl)-1-(3,3-difluoropyrrolidin-1-yl)propan-1-one] | 1000 to 5000 | > 5000 | – | – |
| 3-(3-amino-7-o-tolylnaphthalen-2-yl)-N-(1-(2-methoxyphenyl)ethyl)-2-methylpropanamide [Example 70] | < 500 | – | 1000 to 5000 | – |
| Cc1cccnc1-c1ccc2nc(N)c(CCC(=O)N[C@H](C)c3ccccc3OC(F)F)cc2c1 [Example 133, (R)-3-(2-amino-6-(3-methylpyridin-2-yl)quinolin-3-yl)-N-(1-(2-(difluoromethoxy)phenyl)ethyl)propanamide] | 1000 to 5000 | > 5000 | – | – |
| Cc1cccnc1-c1ccc2nc(N)c(CC(C)C(=O)NCC3CCC(F)(F)CC3)cc2c1 (stereo not shown) [Example 117, 3-(2-amino-6-(3-methylpyridin-2-yl)quinolin-3-yl)-N-((4,4-difluorocyclohexyl)methyl)-2-methylpropanamide] | < 500 | 500 to 1000 | – | – |
| Cc1ccccc1-c1ccc2nc(N)c(CCC(=O)NCC3CCCCC3)cc2c1 [Example 14, 3-(2-amino-6-o-tolylquinolin-3-yl)-N-(cyclohexylmethyl)propanamide] | – | 500 to 1000 | – | – |
| 3-(3-amino-7-o-tolylnaphthalen-2-yl)-N-(pyridin-3-ylmethyl)propanamide [Example 37] | < 500 | – | 1000 to 5000 | – |
| 3-(3-amino-7-o-tolylnaphthalen-2-yl)-N-(2,3-dihydro-1H-inden-1-yl)propanamide [Example 57] | < 500 | – | 1000 to 5000 | – |
| Cc1ccccc1-c1ccc2nc(N)c(CCC(=O)NCC3CCCCC3)nc2c1 [Example 140, 3-(3-amino-7-(2-methylphenyl)-2-quinoxalinyl)-N-(cyclohexylmethyl)propanamide] | < 500 | 1000 to 5000 | – | – |
| Cc1ccccc1-c1ccc2nc(N)c(C[C@@H](C)C(=O)NCc3cccnn3)cc2c1 [Example 81, (R)-3-(2-amino-6-o-tolylquinolin-3-yl)-2-methyl-N-(pyridazin-3-ylmethyl)propanamide] | < 500 | 500 to 1000 | – | < 50 |

| Compound | IC50 [1, 3] [nM] | IC50 ([2]; Homo sapiens, HEK293, 24 h) [nM] | IC50 [2] [nM] | IC50 ([1]; bound stated, read-out: IC50 value in the FRET BACE enzyme assay) [nM] |
| --- | --- | --- | --- | --- |
| CC(C)(C)CCNC(=O)CCc1cc2cc(-c3ccccc3C(=O)N3CCCC3)ccc2nc1N [Example 165, 3-(2-amino-6-(2-(1-pyrrolidinylcarbonyl)phenyl)-3-quinolinyl)-N-(3,3-dimethylbutyl)propanamide] | < 500 | 1000 to 5000 | – | – |
| CC(=O)c1ccccc1-c1ccc2nc(N)c(CC(C)C(=O)NCCC(C)(C)C)cc2c1 (stereo not shown) [Example 156, 3-(6-(2-acetylphenyl)-2-aminoquinolin-3-yl)-N-(3,3-dimethylbutyl)-2-methylpropanamide] | – | < 500 | – | – |
| Cc1ccccc1-c1ccc2nc(N)c(CC(C)C(=O)NCC3CCCCC3)cc2c1 (stereo not shown) [Example 22, 3-(2-amino-6-o-tolylquinolin-3-yl)-N-(cyclohexylmethyl)-2-methylpropanamide] | – | < 500 | – | – |
| Cc1ccccc1-c1ccc2nc(N)c(CC(C(=O)NCC3CCCCC3)C(C)C)cc2c1 (stereo not shown) [Example 66, 2-((2-amino-6-o-tolylquinolin-3-yl)methyl)-N-(cyclohexylmethyl)-3-methylbutanamide] | – | 1000 to 5000 | – | – |
| Cc1ccccc1-c1ccc2nc(N)c(CC(C)C(=O)NCc3cncs3)cc2c1 (stereo not shown) [Example 93, 3-(2-amino-6-o-tolylquinolin-3-yl)-2-methyl-N-(thiazol-5-ylmethyl)propanamide] | – | < 500 | – | – |
| C[C@H](Cc1cc2cc(-c3ncccc3Cl)ccc2nc1N)C(=O)NCCC(C)(C)C [Example 128, (R)-3-(2-amino-6-(3-chloropyridin-2-yl)quinolin-3-yl)-N-(3,3-dimethylbutyl)-2-methylpropanamide] | – | < 500 | – | – |
| Cc1ccccc1-c1ccc2nc(N)c(CCC(=O)NC3CCCCC3)cc2c1 [Example 13, 3-(2-amino-6-o-tolylquinolin-3-yl)-N-cyclohexylpropanamide] | – | 500 to 1000 | – | – |
| Cc1cccnc1-c1ccc2nc(N)c(CC(C)C(=O)NCCC(C)(C)C)cc2c1 (stereo not shown) [Example 5, 3-(2-amino-6-(3-methylpyridin-2-yl)quinolin-3-yl)-N-(3,3-dimethylbutyl)-2-methylpropanamide] | – | 500 to 1000 | – | – |
| Cc1ccccc1-c1ccc2nc(N)c(C[C@@H](C)C(=O)NCC3CCOCC3)cc2c1 [Example 87, (R)-3-(2-amino-6-o-tolylquinolin-3-yl)-2-methyl-N-((tetrahydro-2H-pyran-4-yl)methyl)propanamide] | – | < 500 | – | – |
| Cc1ccccc1-c1ccc2nc(N)c(CCC(=O)N(C)C3CCCCC3)cc2c1 [Example 1, 3-(2-amino-6-o-tolylquinolin-3-yl)-N-cyclohexyl-N-methylpropanamide] | – | < 500 | – | – |
| Cc1ccccc1-c1ccc2nc(N)c(C[C@@H](C)C(=O)NC3CCOC(C)(C)C3)cc2c1 (stereo partly drawn) [Example 164, (2R)-3-(2-amino-6-o-tolylquinolin-3-yl)-N-(2,2-dimethyltetrahydro-2H-pyran-4-yl)-2-methylpropanamide] | – | < 500 | – | – |
| Cc1ccccc1-c1ccc2nc(N)c(CC(C)C(=O)NCCC(C)(C)C)cc2c1 (stereo not shown) [Example 90, 3-(2-amino-6-o-tolylquinolin-3-yl)-N-(3,3-dimethylbutyl)-2-methylpropanamide] | – | < 500 | – | – |
| CCC(Cc1cc2cc(-c3ccccc3C)ccc2nc1N)C(=O)NCC1CCCCC1 (stereo not shown) [Example 60, 2-((2-amino-6-o-tolylquinolin-3-yl)methyl)-N-(cyclohexylmethyl)butanamide] | – | > 5000 | – | – |
| Cc1ccccc1-c1ccc2nc(N)c(C[C@@H](C)C(=O)NCc3cnccn3)cc2c1 [Example 80, (R)-3-(2-amino-6-o-tolylquinolin-3-yl)-2-methyl-N-(pyrazin-2-ylmethyl)propanamide] | – | < 500 | – | – |
| Cc1cccnc1-c1ccc2nc(N)c(C[C@@H](C)C(=O)NCCC(C)(C)C)cc2c1 [Example 126, (R)-3-(2-amino-6-(3-methylpyridin-2-yl)quinolin-3-yl)-N-(3,3-dimethylbutyl)-2-methylpropanamide] | – | < 500 | – | – |
| Cc1ccccc1-c1ccc2nc(N)c(CC(C)C(=O)NCc3ccccc3)cc2c1 (stereo not shown) [Example 52, 3-(2-amino-6-o-tolylquinolin-3-yl)-N-benzyl-2-methylpropanamide] | – | 1000 to 5000 | – | – |

— patent publication US9296698B2, “Amino heteroaryl compounds as beta-secretase modulators and methods of use” (Amgen Inc., priority 2009, dated 2016)
